Source: ChEMBL document CHEMBL4507317, “Data for DCP probe BAY-899” (2021)

What was measured:
[1] = molecular target: MAP/microtubule affinity-regulating kinase 4 (Homo sapiens) (UniProt Q96L34); settings: Compound concentration 1000.0 nM
[2] = molecular target: Testis-specific serine/threonine-protein kinase 3 (Homo sapiens) (UniProt Q96PN8); settings: Compound concentration 1000.0 nM
[3] = molecular target: Tyrosine-protein kinase receptor TYRO3 (Homo sapiens) (UniProt Q06418); settings: Compound concentration 1000.0 nM
[4] = molecular target: Serine/threonine-protein kinase PAK 3 (Homo sapiens) (UniProt O75914); settings: Compound concentration 1000.0 nM
[5] = molecular target: Tyrosine-protein kinase ZAP-70 (Homo sapiens) (UniProt P43403); settings: Compound concentration 1000.0 nM
[6] = molecular target: RAC-beta serine/threonine-protein kinase (Homo sapiens) (UniProt P31751); settings: Compound concentration 1000.0 nM
[7] = tested on: Tyrosine-protein kinase ABL1 (Homo sapiens), P00519 [F317I]; settings: Compound concentration 1000.0 nM
Chain of Tyrosine-protein kinase ABL1 (Homo sapiens), P00519 [F317I] (P00519 whole entry F317I): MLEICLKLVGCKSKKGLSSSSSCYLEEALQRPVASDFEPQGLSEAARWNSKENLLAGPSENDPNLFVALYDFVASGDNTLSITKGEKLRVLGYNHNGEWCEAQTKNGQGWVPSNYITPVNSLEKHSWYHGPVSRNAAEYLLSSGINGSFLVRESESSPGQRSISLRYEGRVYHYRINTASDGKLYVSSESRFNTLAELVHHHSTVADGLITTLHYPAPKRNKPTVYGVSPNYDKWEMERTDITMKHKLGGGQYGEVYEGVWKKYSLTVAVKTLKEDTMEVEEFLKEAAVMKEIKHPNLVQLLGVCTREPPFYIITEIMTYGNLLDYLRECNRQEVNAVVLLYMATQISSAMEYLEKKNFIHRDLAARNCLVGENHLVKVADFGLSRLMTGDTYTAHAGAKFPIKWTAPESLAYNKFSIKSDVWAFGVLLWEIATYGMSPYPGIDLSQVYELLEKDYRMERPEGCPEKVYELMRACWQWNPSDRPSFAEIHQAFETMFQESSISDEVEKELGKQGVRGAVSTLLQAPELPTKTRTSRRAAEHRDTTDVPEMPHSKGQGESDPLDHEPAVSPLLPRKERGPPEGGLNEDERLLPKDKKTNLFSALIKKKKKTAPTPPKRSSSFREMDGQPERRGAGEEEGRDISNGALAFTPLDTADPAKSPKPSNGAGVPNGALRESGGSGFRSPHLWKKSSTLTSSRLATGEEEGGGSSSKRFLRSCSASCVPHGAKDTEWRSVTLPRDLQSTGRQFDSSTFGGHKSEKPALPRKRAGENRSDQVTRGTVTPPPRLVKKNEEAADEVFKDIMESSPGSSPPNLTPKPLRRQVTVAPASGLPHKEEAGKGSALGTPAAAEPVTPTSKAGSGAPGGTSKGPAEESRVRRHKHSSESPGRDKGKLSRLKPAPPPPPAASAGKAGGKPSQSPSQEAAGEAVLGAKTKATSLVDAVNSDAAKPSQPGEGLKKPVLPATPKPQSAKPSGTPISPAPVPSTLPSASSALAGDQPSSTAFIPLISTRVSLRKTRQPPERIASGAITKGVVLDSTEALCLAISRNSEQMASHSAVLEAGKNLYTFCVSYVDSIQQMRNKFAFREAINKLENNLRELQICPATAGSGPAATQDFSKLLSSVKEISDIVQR

[8] = tested on: Epidermal growth factor receptor (Homo sapiens), P00533 [L861Q]; settings: Compound concentration 1000.0 nM
[9] = molecular target: Fibroblast growth factor receptor 2 (Homo sapiens) (UniProt P21802); settings: Compound concentration 1000.0 nM
[10] = molecular target: Tyrosine-protein kinase receptor UFO (Homo sapiens) (UniProt P30530); settings: Compound concentration 1000.0 nM
[11] = molecular target: Phosphatidylinositol 4,5-bisphosphate 3-kinase catalytic subunit delta isoform (Homo sapiens) (UniProt O00329); settings: Compound concentration 1000.0 nM
[12] = molecular target: Angiopoietin-1 receptor (Homo sapiens) (UniProt Q02763); settings: Compound concentration 1000.0 nM
[13] = molecular target: Serine/threonine-protein kinase pim-3 (Homo sapiens) (UniProt Q86V86); settings: Compound concentration 1000.0 nM
[14] = molecular target: SNF-related serine/threonine-protein kinase (Homo sapiens) (UniProt Q9NRH2); settings: Compound concentration 1000.0 nM
Chain of SNF-related serine/threonine-protein kinase (Homo sapiens) (Q9NRH2 whole entry): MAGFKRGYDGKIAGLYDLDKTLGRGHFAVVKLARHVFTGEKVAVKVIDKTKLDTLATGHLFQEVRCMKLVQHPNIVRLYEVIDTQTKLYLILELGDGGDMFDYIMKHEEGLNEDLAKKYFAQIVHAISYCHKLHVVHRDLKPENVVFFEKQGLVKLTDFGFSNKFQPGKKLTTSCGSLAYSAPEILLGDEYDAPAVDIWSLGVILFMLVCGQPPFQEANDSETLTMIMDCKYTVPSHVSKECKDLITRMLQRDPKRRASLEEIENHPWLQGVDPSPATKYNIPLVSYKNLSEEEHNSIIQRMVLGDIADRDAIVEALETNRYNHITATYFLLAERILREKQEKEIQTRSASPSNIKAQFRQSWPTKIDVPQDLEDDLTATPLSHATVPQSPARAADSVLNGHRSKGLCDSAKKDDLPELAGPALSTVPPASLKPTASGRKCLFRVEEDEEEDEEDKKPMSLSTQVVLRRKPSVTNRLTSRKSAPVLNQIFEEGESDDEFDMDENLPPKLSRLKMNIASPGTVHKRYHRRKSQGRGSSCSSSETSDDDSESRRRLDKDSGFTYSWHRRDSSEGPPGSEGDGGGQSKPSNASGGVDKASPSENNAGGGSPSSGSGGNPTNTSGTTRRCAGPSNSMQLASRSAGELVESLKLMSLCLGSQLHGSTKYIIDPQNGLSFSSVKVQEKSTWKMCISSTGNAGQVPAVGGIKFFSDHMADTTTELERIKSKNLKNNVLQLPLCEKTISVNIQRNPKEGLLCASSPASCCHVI

[15] = molecular target: SRSF protein kinase 2 (Homo sapiens) (UniProt P78362); settings: Compound concentration 1000.0 nM
[16] = molecular target: Megakaryocyte-associated tyrosine-protein kinase (Homo sapiens) (UniProt P42679); settings: Compound concentration 1000.0 nM
[17] = molecular target: Tyrosine-protein kinase BTK (Homo sapiens) (UniProt Q06187); settings: Compound concentration 1000.0 nM
[18] = molecular target: Serine/threonine-protein kinase PAK 2 (Homo sapiens) (UniProt Q13177); settings: Compound concentration 1000.0 nM
[19] = molecular target: Dual specificity mitogen-activated protein kinase kinase 1 (Homo sapiens) (UniProt Q02750); settings: Compound concentration 1000.0 nM
[20] = molecular target: Cyclin-dependent kinase 11B (Homo sapiens) (UniProt P21127); settings: Compound concentration 1000.0 nM
Chain of Cyclin-dependent kinase 11B (Homo sapiens) (P21127 whole entry): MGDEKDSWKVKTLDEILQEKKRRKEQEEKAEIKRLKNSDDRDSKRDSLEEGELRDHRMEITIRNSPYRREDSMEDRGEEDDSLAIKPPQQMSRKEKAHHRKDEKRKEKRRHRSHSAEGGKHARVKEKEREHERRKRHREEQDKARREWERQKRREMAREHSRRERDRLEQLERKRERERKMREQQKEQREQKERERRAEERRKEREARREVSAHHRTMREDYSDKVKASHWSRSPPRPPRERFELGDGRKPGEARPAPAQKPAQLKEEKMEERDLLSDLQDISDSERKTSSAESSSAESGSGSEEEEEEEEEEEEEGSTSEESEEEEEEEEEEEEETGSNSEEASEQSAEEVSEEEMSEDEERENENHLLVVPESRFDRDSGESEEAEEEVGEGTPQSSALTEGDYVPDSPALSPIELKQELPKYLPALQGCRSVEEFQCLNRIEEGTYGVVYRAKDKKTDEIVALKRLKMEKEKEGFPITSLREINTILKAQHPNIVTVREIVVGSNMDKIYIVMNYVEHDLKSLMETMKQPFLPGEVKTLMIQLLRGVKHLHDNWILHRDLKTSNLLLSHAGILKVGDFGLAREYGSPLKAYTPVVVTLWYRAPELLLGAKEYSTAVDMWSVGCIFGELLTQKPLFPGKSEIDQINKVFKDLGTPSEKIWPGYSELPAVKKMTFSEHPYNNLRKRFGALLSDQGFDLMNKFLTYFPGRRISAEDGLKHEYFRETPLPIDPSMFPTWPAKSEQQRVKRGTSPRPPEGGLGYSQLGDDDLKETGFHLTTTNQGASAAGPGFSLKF

[21] = molecular target: Ephrin type-A receptor 8 (Homo sapiens) (UniProt P29322); settings: Compound concentration 1000.0 nM
[22] = molecular target: Casein kinase I isoform alpha-like (Homo sapiens) (UniProt Q8N752); settings: Compound concentration 1000.0 nM
[23] = molecular target: Mitotic checkpoint serine/threonine-protein kinase BUB1 (Homo sapiens) (UniProt O43683); settings: Compound concentration 1000.0 nM
[24] = molecular target: Serine/threonine-protein kinase PAK 5 (Homo sapiens) (UniProt Q9P286); settings: Compound concentration 1000.0 nM
[25] = molecular target: Cyclin-dependent kinase 7 (Homo sapiens) (UniProt P50613); settings: Compound concentration 1000.0 nM
Chain of Cyclin-dependent kinase 7 (Homo sapiens) (P50613 whole entry): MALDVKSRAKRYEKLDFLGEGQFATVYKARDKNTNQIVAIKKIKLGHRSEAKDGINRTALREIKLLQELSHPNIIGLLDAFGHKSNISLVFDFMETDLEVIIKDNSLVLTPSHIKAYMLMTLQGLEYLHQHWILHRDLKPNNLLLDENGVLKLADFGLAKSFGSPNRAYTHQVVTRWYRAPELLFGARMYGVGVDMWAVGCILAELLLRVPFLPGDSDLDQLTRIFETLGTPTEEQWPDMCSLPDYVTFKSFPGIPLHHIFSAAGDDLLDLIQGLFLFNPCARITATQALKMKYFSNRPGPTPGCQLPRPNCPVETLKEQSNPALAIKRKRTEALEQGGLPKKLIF

[26] = tested on: eIF-2-alpha kinase GCN2 (Homo sapiens), Q9P2K8 [S808G]; settings: Compound concentration 1000.0 nM
[27] = tested on: Receptor-type tyrosine-protein kinase FLT3 (Homo sapiens), P36888 [R834Q]; settings: Compound concentration 1000.0 nM
[28] = molecular target: T1, 5-hydroxytryptamine receptor 1A (Homo sapiens) (UniProt P08908); settings: Compound concentration 10.0 uM
T1 sequence (whole entry): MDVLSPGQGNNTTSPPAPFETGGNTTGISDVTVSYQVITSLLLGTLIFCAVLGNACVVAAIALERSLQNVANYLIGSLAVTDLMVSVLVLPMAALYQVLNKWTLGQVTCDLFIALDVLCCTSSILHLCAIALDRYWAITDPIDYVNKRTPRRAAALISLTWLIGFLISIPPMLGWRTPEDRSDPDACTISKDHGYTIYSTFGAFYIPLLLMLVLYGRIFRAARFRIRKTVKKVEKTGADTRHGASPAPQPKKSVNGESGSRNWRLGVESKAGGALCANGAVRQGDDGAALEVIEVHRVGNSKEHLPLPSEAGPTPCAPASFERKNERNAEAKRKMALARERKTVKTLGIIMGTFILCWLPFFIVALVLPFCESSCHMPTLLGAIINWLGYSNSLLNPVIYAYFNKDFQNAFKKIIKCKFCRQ

[29] = molecular target: SRSF protein kinase 1 (Homo sapiens) (UniProt Q96SB4); settings: Compound concentration 1000.0 nM
Chain of SRSF protein kinase 1 (Homo sapiens) (Q96SB4 whole entry): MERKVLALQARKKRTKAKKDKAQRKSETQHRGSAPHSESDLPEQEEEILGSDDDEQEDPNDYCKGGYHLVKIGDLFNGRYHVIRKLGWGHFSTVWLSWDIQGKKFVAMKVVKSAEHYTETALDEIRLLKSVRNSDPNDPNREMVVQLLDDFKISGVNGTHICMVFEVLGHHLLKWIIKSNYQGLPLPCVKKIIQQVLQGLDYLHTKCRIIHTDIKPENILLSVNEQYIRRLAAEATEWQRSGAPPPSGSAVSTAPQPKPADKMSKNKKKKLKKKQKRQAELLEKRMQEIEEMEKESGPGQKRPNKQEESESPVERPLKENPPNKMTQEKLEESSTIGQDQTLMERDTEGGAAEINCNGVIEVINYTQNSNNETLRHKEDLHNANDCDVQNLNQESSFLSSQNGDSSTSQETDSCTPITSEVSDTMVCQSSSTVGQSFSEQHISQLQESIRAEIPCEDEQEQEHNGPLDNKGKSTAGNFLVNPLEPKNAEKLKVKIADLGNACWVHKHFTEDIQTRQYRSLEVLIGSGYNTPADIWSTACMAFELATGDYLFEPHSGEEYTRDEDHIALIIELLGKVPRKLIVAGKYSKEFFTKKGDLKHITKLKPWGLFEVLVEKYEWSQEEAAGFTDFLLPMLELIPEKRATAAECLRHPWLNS

[30] = molecular target: Cyclin-G-associated kinase (Homo sapiens) (UniProt O14976); settings: Compound concentration 1000.0 nM
[31] = molecular target: Calcium/calmodulin-dependent protein kinase type 1 (Homo sapiens) (UniProt Q14012); settings: Compound concentration 1000.0 nM
[32] = molecular target: Insulin-like growth factor 1 receptor (Homo sapiens) (UniProt P08069); settings: Compound concentration 1000.0 nM
[33] = molecular target: Dual specificity protein kinase CLK2 (Homo sapiens) (UniProt P49760); settings: Compound concentration 1000.0 nM
[34] = molecular target: Cyclin-dependent kinase 3 (Homo sapiens) (UniProt Q00526); settings: Compound concentration 1000.0 nM
[35] = molecular target: Phosphatidylinositol 3-kinase catalytic subunit type 3 (Homo sapiens) (UniProt Q8NEB9); settings: Compound concentration 1000.0 nM
[36] = molecular target: Focal adhesion kinase 1 (Homo sapiens) (UniProt Q05397); settings: Compound concentration 1000.0 nM
Chain of Focal adhesion kinase 1 (Homo sapiens) (Q05397 2-1052 limits assumed): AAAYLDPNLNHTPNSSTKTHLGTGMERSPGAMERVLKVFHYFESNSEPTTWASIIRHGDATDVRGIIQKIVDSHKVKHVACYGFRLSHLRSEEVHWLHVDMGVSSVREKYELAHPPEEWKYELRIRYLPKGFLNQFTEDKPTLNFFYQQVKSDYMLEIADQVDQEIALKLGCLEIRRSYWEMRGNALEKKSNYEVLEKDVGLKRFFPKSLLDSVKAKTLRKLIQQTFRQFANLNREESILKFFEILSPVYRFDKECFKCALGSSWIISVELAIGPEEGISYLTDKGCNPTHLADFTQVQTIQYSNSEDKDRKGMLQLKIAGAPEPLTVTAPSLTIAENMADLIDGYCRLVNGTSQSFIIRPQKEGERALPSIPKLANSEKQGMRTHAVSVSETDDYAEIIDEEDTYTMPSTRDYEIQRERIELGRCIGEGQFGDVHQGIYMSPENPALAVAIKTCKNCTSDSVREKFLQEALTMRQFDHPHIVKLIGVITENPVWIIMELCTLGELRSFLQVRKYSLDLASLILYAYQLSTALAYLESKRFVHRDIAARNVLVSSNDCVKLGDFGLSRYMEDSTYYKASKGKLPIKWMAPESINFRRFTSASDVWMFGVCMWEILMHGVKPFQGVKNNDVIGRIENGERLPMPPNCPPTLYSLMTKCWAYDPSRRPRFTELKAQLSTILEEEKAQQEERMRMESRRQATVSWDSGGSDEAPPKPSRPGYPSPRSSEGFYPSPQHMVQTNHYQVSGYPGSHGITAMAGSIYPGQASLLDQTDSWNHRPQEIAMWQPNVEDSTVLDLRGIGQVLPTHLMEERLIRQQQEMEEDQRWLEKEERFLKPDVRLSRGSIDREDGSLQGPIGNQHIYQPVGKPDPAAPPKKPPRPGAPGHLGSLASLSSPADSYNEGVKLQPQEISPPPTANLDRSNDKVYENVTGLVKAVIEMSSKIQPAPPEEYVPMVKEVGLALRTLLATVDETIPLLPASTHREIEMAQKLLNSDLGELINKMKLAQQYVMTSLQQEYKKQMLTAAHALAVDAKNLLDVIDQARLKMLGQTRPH

[37] = molecular target: Serine/threonine-protein kinase B-raf (Homo sapiens) (UniProt P15056); settings: Compound concentration 1000.0 nM
[38] = molecular target: Serine/threonine-protein kinase WNK2 (Homo sapiens) (UniProt Q9Y3S1); settings: Compound concentration 1000.0 nM
[39] = molecular target: Cyclin-dependent kinase 16 (Homo sapiens) (UniProt Q00536); settings: Compound concentration 1000.0 nM
[40] = molecular target: Serine/threonine-protein kinase ULK1 (Homo sapiens) (UniProt O75385); settings: Compound concentration 1000.0 nM

O=C(Nc1ccc(Oc2ccc(F)cc2)cc1)N1CCc2ncccc2[C@H]1c1ccc(F)cc1 [BAY-897]
inactive: residual activity [1] 86% | residual activity [2] 98% | residual activity [3] 99% | residual activity [4] 100% | residual activity [5] 91% | residual activity [6] 96% | residual activity [7] 100% | residual activity [8] 83% | residual activity [9] 93% | residual activity [10] 77% | residual activity [11] 93% | residual activity [12] 100% | residual activity [13] 79% | residual activity [14] 90% | residual activity [15] 100% | residual activity [16] 90% | residual activity [17] 93% | residual activity [18] 52% | residual activity [19] 98% | residual activity [20] 89% | residual activity [21] 92% | residual activity [22] 92% | residual activity [23] 98% | residual activity [24] 100% | residual activity [25] 77% | residual activity [26] 100% | residual activity [27] 97% | inhibition [28] -3.56% | residual activity [29] 94% | residual activity [30] 89% | residual activity [31] 70% | residual activity [32] 100% | residual activity [33] 95% | residual activity [34] 93% | residual activity [35] 92% | residual activity [36] 100% | residual activity [37] 85% | residual activity [38] 88% | residual activity [39] 65% | residual activity [40] 89%

O=C(Nc1cnc(Oc2ccc(F)cc2)nc1)N1CCc2ncccc2[C@@H]1c1ccc(F)cc1 [BAY-899]
inactive: residual activity [1] 91% | residual activity [2] 86% | residual activity [3] 100% | residual activity [4] 100% | residual activity [5] 93% | residual activity [6] 100% | residual activity [7] 100% | residual activity [8] 85% | residual activity [9] 98% | residual activity [10] 76% | residual activity [11] 100% | residual activity [12] 93% | residual activity [13] 82% | residual activity [14] 90% | residual activity [15] 100% | residual activity [16] 80% | residual activity [17] 92% | residual activity [18] 59% | residual activity [19] 93% | residual activity [20] 94% | residual activity [21] 88% | residual activity [22] 82% | residual activity [23] 92% | residual activity [24] 95% | residual activity [25] 100% | residual activity [26] 85% | residual activity [27] 99% | inhibition [28] -8.97% | residual activity [29] 100% | residual activity [30] 94% | residual activity [31] 73% | residual activity [32] 100% | residual activity [33] 100% | residual activity [34] 89% | residual activity [35] 100% | residual activity [36] 100% | residual activity [37] 74% | residual activity [38] 79% | residual activity [39] 75% | residual activity [40] 88%
